Values of other authors, collected in patent US20040219231A1, “Production of concentrated biocidal solutions” (priority 2000, published 2004).

What was measured:
[1] = not given; remark: listed apart in the source

SMILES | Vapor Pressure (25° C.) [mm] | solubility in water [1]
BrBr [Bromine (Br2), Bromine] | 214 | 
ClBr [Bromine Chloride (BrCl), Bromine Chloride] | 1800 | 
CC1(C)C(=O)N(Cl)C(=O)N1Br [BCDMH, 1,3-bromochloro-5,5-dimethylhydantoin] |  | around 0.15%
